Target: Gonadotropin-releasing hormone receptor (Rattus norvegicus) (UniProt P30969)
Assay: In vitro binding affinity was determined against rat Luteinizing hormone-releasing hormone (LHRH) receptor cloned in CHO cells

Sequence of Gonadotropin-releasing hormone receptor (Rattus norvegicus) (P30969 whole entry, looked up): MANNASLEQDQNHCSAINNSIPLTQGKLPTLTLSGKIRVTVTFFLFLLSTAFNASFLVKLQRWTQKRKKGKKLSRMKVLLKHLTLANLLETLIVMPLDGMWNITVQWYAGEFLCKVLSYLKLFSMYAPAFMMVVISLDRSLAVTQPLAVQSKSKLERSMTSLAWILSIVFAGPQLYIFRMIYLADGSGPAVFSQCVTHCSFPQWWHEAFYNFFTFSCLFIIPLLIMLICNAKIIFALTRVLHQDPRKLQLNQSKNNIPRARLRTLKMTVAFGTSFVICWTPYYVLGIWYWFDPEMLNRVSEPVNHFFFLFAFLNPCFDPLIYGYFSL

Structure (SMILES): CC[C@H]1OC(=O)[C@H](C)[C@@H](OC(=O)N2CCOC2)[C@H](C)[C@@H](OC2O[C@H](C)C[C@H](N(C)C(C)C)[C@H]2O)[C@@](C)(OC)C[C@@H](C)C(=O)[C@H](C)[C@H]2N(CCc3ccc(Cl)cc3)C(=O)O[C@]12C (stereo partly specified)
- Ki: 51 nM
